Data published in patent US20170050957A1, “4-AMINO-6-(HETEROCYCLIC)PICOLINATES AND 6-AMINO-2-(HETEROCYCLIC)PYRIMIDINE-4-CARBOXYLATES AND THEIR USE AS HERBICIDES” (Dow AgroSciences LLC, priority 2013, published 2017).
Like-named read-outs stand apart in the source and are kept apart here.

Assays:
[1] = tested on: Key Broadleaf Weed and Crop Species; assay: Post-emergent Test II herbicidal activity (Table 15); type: in vivo; settings: post-emergence, 336 h, 14 d; for pest or weed control at 35 g/ha: 35 g ai/ha; for pest or weed control at 70 g/ha: 70 g ai/ha; for pest or weed control at 140 g/ha: 140 g ai/ha
Method in brief: (§1)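 Visual injury rating (0 = none, 100 = complete kill) taken 14 d after treatment, relative to untreated plants. Compounds in acetone/DMSO with crop oil concentrate and Triton X-155 were track-sprayed at 187 L/ha onto seedlings at the first-second true leaf stage.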

[2] = tested on: Key Grass and Sedge Weeds as well as Grass Crops; assay: Post-emergent Test II herbicidal activity (Table 16); type: in vivo; settings: post-emergence, 336 h, 14 days after application; for pest or weed control at 35 g/ha: 35 g ai/ha; for pest or weed control at 70 g/ha: 70 g ai/ha; for pest or weed control at 140 g/ha: 140 g ai/ha
Method in brief: as §1

[3] = Abutilon theophrasti, velvetleaf (Abutilon theophrasti), read-out: Visual Growth Reduction (%) 14 Days After Application, ABUTH
[4] = Amaranthus retroflexus, redroot pigweed (Amaranthus retroflexus), read-out: Visual Growth Reduction (%) 14 Days After Application, AMARE
[5] = Brassica napus, oilseed rape, canola (Brassica napus), read-out: Visual Growth Reduction (%) 14 Days After Application, BRSNN
[6] = Chenopodium album, lambsquarters (Chenopodium album), read-out: Visual Growth Reduction (%) 14 Days After Application, CHEAL
[7] = Euphorbia heterophylla, wild poinsettia (Euphorbia heterophylla), read-out: Visual Growth Reduction (%) 14 Days After Application, EPHHL
[8] = Helianthus annuus, sunflower (Helianthus annuus), read-out: Visual Growth Reduction (%) 14 Days After Application, HELAN
[9] = Cyperus esculentus, yellow nutsedge (Cyperus esculentus), read-out: Visual Growth Reduction (%) 14 Days After Application CYPES
[10] = Echinochloa crus-galli, barnyardgrass (Echinochloa crus-galli), read-out: Visual Growth Reduction (%) 14 Days After Application ECHCG
[11] = Oryza sativa, rice (Oryza sativa), read-out: Visual Growth Reduction (%) 14 Days After Application ORYSA
[12] = Setaria faberi, giant foxtail (Setaria faberi), read-out: Visual Growth Reduction (%) 14 Days After Application SETFA
[13] = Triticum aestivum, wheat, spring (Triticum aestivum), read-out: Visual Growth Reduction (%) 14 Days After Application TRZAS
[14] = Zea mays, maize, corn (Zea mays), read-out: Visual Growth Reduction (%) 14 Days After Application ZEAMX

SMILES	pest or weed control at 35 g/ha [1, 3]	pest or weed control at 70 g/ha [1, 3]	pest or weed control at 140 g/ha [1, 3]	pest or weed control at 35 g/ha [1, 4]	pest or weed control at 70 g/ha [1, 4]	pest or weed control at 140 g/ha [1, 4]	pest or weed control at 35 g/ha [1, 5]	pest or weed control at 70 g/ha [1, 5]	pest or weed control at 140 g/ha [1, 5]	pest or weed control at 35 g/ha [1, 6]	pest or weed control at 70 g/ha [1, 6]	pest or weed control at 140 g/ha [1, 6]	pest or weed control at 70 g/ha [1, 7]	pest or weed control at 35 g/ha [1, 8]	pest or weed control at 70 g/ha [1, 8]	pest or weed control at 140 g/ha [1, 8]	pest or weed control at 35 g/ha [2, 10]	pest or weed control at 70 g/ha [2, 10]	pest or weed control at 140 g/ha [2, 10]	pest or weed control at 35 g/ha [2, 11]	further results
COC(=O)c1nc(-c2ccc3ccsc3c2)cc(N)c1Cl [Compound 3.15]	85 to 94%	95 to 100%	95 to 100%	95 to 100%	95 to 100%	95 to 100%	30 to 44%	45 to 59%	45 to 59%	85 to 94%	85 to 94%	95 to 100%	75 to 84%	60 to 74%	60 to 74%	85 to 94%	75 to 84%	75 to 84%	95 to 100%	0 to 29%	pest or weed control at 35 g/ha [1, 7]: 75 to 84%; pest or weed control at 140 g/ha [1, 7]: 85 to 94%; pest or weed control at 35 g/ha [2, 9]: 0 to 29%; pest or weed control at 70 g/ha [2, 9]: 0 to 29%; pest or weed control at 140 g/ha [2, 9]: 0 to 29%; pest or weed control at 70 g/ha [2, 11]: 0 to 29%; pest or weed control at 140 g/ha [2, 11]: 0 to 29%; pest or weed control at 35 g/ha [2, 12]: 0 to 29%; pest or weed control at 70 g/ha [2, 12]: 0 to 29%; pest or weed control at 140 g/ha [2, 12]: 0 to 29%; pest or weed control at 35 g/ha [2, 13]: 0 to 29%; pest or weed control at 70 g/ha [2, 13]: 0 to 29%; pest or weed control at 140 g/ha [2, 13]: 0 to 29%; pest or weed control at 35 g/ha [2, 14]: 60 to 74%; pest or weed control at 70 g/ha [2, 14]: 60 to 74%; pest or weed control at 140 g/ha [2, 14]: 60 to 74%
COC(=O)c1nc(-c2ccc3ocnc3c2)c(F)c(N)c1Cl [Compound 5.01]	60 to 74%	60 to 74%	60 to 74%	75 to 84%	85 to 94%	85 to 94%	85 to 94%	95 to 100%	95 to 100%	60 to 74%	85 to 94%	85 to 94%	95 to 100%	85 to 94%	85 to 94%	95 to 100%	75 to 84%	75 to 84%	85 to 94%	0 to 29%	pest or weed control at 70 g/ha [2, 11]: 0 to 29%; pest or weed control at 140 g/ha [2, 11]: 0 to 29%; pest or weed control at 35 g/ha [2, 12]: 0 to 29%; pest or weed control at 70 g/ha [2, 12]: 0 to 29%; pest or weed control at 140 g/ha [2, 12]: 0 to 29%; pest or weed control at 35 g/ha [2, 13]: 0 to 29%; pest or weed control at 70 g/ha [2, 13]: 0 to 29%; pest or weed control at 140 g/ha [2, 13]: 0 to 29%; pest or weed control at 35 g/ha [2, 14]: 0 to 29%; pest or weed control at 70 g/ha [2, 14]: 0 to 29%; pest or weed control at 140 g/ha [2, 14]: 0 to 29%
